In patent US11148998B2, “Dimethyl-nonatetraenyl-trimethyl-cyclohexyl compounds and uses thereof” (The Regents of the University of Michigan, priority 2017, dated 2021):

Key:
[1] = test system: normal human skin in organ culture; test: Retinoid-induced skin thickening in human skin organ culture; type: cell-based; settings: 1 μg/mL, 8 days organ culture
Procedure: Human skin biopsies were incubated for 8 days in organ culture. […] At the end of the incubation period, the tissue was fixed for histology and examined at the light microscopy level after staining with hematoxylin and eosin. […] These abnormalities are not seen in the ex. 1—treated skin section.
Replicate 2-mm punch biopsies (up to 12 per subject) are obtained from hip skin of volunteers 18-70 years of age. The participation of human subjects is approved by the University of Michigan Institutional Review Board and all subjects provide written informed consent prior to their inclusion in the study. The punch biopsies are incubated in wells of a 24 well dish (one tissue piece per 200-500 μL of culture medium). Culture medium consists of KBM. For organ culture, the culture medium is supplemented with calcium chloride to a final calcium concentration of 1.5 mM. One or two wells are typically left as control while the others are treated as desired. Fresh culture medium and treatments are provided at 2-day intervals. Organ culture-conditioned medium collected at day-2 is saved for cytokine assessment or for measure of other bioactive molecules as desired. At the end of the incubation period (typically, day-8), the tissue is fixed in 10% buffered formalin and used for histology. The organ culture protocol used here is virtually identical to that described in several past reports (see, e.g., Varani J, et al., J Clin Invest. 1994; 94:1747-1756; Varani J, et al., Am J Pathol. 1993 January; 142(1):189-98; Lateef H, et al., Am J Pathol. 2004; 165:167-174; Varani J, et al., Exp Mol Pathol. 2004; 77(3):176-83; Varani J, et al., Am J Pathol. 1993 June; 142(6):1813-22; Varani J, et al., Toxicol. Pathol. 35:693-701, 2007; Rittié L, et al., J Invest Dermatol, 126:732-739, 2006).

[2] = test system: NB4 cells (PML cell line); test: NB4 cell differentiation (morphology, phase contrast); type: cell-based; settings: 50 μg/mL, 48 hours
Procedure: FIGS. 8A & FIG. 8B: Morphological change with Compound 2. Control NB4 cells are shown after 48 hours incubation in culture medium in FIG. 8A.
Concentration-dependent and time-dependent growth inhibition studies were carried out in vitro. Cells were plated in wells of a 24-well dish at 5×10^4 cells per well in maintenance media (DMEM+2% fetal bovine serum. Each of the experimental retinoids were added at the desired concentrations and the cells incubated for 3 days. At the end of the incubation period, cells were counted using an electronic particle counter. Viability was determined by exclusion of trypan blue. To assess differentiation, cells were treated for three days with either the desired agent (or control) in culture medium. At the end of the incubation period, the cells were photographed under phase-contrast microscopy.
Inhibition could be seen at both 48 and 72 hours of incubation. […] The polarized, flattened morphology is evidence of differentiation. These studies, thus, indicate that the experimental retinoids have potential as anti-cancer agents.

human dermal fibroblasts = test: Retinoid-induced fibroblast cytotoxicity; type: cell-based; settings: KBM 1.5 mM calcium, 72 hours, up to 5 μg/mL
Procedure: Human dermal fibroblasts are isolated from skin biopsies as described previously and grown in monolayer culture using DMEM supplemented with 10% fetal bovine serum as culture medium (see, e.g., Varani J, et al., J Clin Invest. 1994; 94; Varani J, et al., J. Invest. Dermatol. 94:717-723, 1990). Growth is at 37° C. in a humidified atmosphere containing 5% CO2 and 95% air. For experimental studies, cells are plated at 5×10^4 cells per well in wells of a 24-well culture dish in the same culture medium. One day later, cells are washed and the DMEM culture medium is replaced with Keratinocyte Basal Medium (KBM).
This assay is similar to the fibroblast cytotoxicity assay except that the human dermal fibroblasts are plated in culture medium (KBM) supplemented with a concentration of calcium (1.5 mM) that supports survival on its own. The biologically active retinoids are included in the culture medium and the cells incubated for 72 hours. Under such conditions, there is little net increase in growth with added retinoid, and at high concentrations, cytotoxicity occurs (see, e.g., Varani, J., et al., J. Invest. Dermatol. 101:839-842).
That is, there was little decline in cell numbers compared to control with retinoid concentrations up to 5 μg/mL.

[3] = Rhino mouse topical treatment: spleen size; type: in vivo; settings: 0.1% topical, 21 days
Source text: Mouse skin is rather thinner than human skin, and topically applied drugs tend to get into the circulation more readily when applied to mice, especially the hairless mutants, than to humans.

[4] = test system: human skin in organ culture; settings: cited from earlier work

CC1=C(/C=C/C(C)=C\C=C\C(C)=C\C(=O)N(C)CC(=O)C(C)(C)C)C(C)(C)CCC1 [Example 1, (2E,4E 6Z,8E)-N-(3,3-dimethyl-2-oxobutyl)-N,3,7-trimethyl-9-(2,6,6-trimethylcyclohex-1-en-1-yl)nona-2,4,6,8-tetraenamide]
epidermal thickening (hyperplastic changes), histology [1]: hyperplastic changes (increased epidermal thickening) | toxicity in the upper epidermis, histology [1]: not seen

CC1=C(/C=C/C(C)=C\C=C\C(C)=C\C(=O)N(C)CC(=O)c2ccccc2)C(C)(C)CCC1 [Example 2, (2E,4E 6Z,8E)-N,3,7-trimethyl—N-(2-oxo-2-phenylethyl)-9-(2,6,6-trimethylcyclohex-1-en-1-yl)nona-2,4,6,8-tetraenamide]
morphological change (evidence of differentiation) [2]: polarized and flattened

CC1=C(/C=C/C(C)=C/C=C/C(C)=C/C(=O)O)C(C)(C)CCC1 [ATRA, all-trans retinoic acid, reference compound]
fibroblast cytotoxicity (decline in cell numbers compared to control) (human dermal fibroblasts): lack of fibroblast cytotoxicity at concentrations as high as 5 μg/mL | epidermal thickening (hyperplastic changes), histology [1]: hyperplastic changes (increased epidermal thickening) | toxicity in the upper epidermis, histology [1]: evidence of toxicity in the upper epidermis (i.e., incomplete keratinization with loss of granular layer) | spleen size (splenomegaly) [3]: very marked splenomegaly | effect on collagen-degrading enzyme MMP-1 (collagenase 1) ([4]; human skin organ culture model): inhibited the major collagen-degrading enzyme (MMP-1, collagenase 1) | procollagen I production ([4]; human skin organ culture model): induced procollagen I production | up-regulation of the pro-inflammatory cytokines that underlie retinoid-induced skin irritation ([4]; past studies): as expected, did
